{"source": "patent US20050256188A1", "about": "“Formulations of anthraquinone derivatives” (priority 2002, published 2005)", "key": {"[1]": {"assay": "pH of AQ4N salts in aqueous solution", "assay_type": "physicochemical", "settings": "1.4 mM in water; in Table 4 the label is the acid whose AQ4N disalt was measured", "description": "Stock solutions of individual AQ4N salts were prepared by transferring about 1 mg, accurately weighed, and diluting with water to obtain solutions of 1.4 mM. The solution was vortexed for 3 min using a Fisons WhirlMixer™ (Loughborough, Leicestershire, UK). All AQ4N salt solutions were prepared on the same day as determination of the pH value of the solutions, which was done using a digital pH meter (calibrated at 21±1° C. with standard buffers of pH 7.00 and 4.00 from BDH (UK)."}, "[2]": {"settings": "cited from earlier work; for pKa at 25° C. (pKa1): Table 1, pKa1; for pKa at 25° C.: Table 1, pKa index not given; for pKa1 of acid used to prepare AQ4N disalt: value of the free acid, from IUPAC Handbook of Pharmaceutical Salts"}, "[3]": {"assay": "Degradation of AQ4N dihydrochloride in solution at 40° C.: accumulation of AQMN (HPLC)", "assay_type": "physicochemical", "settings": "for AQMN increase per day: 14 days, % w.r.t. AQ4N", "protocol": "The degradation of AQ4N was investigated using 5 mg/ml solutions of AQ4N at a pH of 2.4, 4.5 and 6.8, which equated to water, 20 mM sodium acetate buffer and 20 mM sodium orthophosphate buffer, respectively. The primary degradation pathway of AQ4N is its conversion to AQMN. The increase in AQMN concentration in 5 mg/ml solutions incubated at 40° C. over an intermediate time period (14 days) is shown in FIG. 3.\nThe effect of pH on the stability of AQ4N was determined by investigating AQ4N degradation in different solutions. The solutions chosen were again distilled water, 20 mM sodium acetate buffer (pH=4) and 20 mM sodium phosphate buffer (pH=7). After preparation of the 5 mg/ml AQ4N buffered solutions the pH was corrected to the required pH of the buffer. The final pHs were 2.4, 4.5 and 6.8 for the distilled water, 20 mM sodium acetate buffer and 20 mM sodium phosphate buffer, respectively. The samples were incubated at 40° C. and sampled at regular intervals. Assay was carried out by sample dilution followed by HPLC analysis."}}, "note": "Where a SMILES comes first, the peptide text is derived from it.", "data": [{"compound": "CC(O)C(=O)O", "note": "(racemic) [Lactic, Lactic acid]", "values": [{"measurement": "measured pH of AQ4N di-salt solutions (1.4 mM)", "setting": "[1]", "result": 3.5}]}, {"compound": "CC(CC(=O)O)(CC(=O)O)C(=O)O", "note": "[2-Methylpropane-1,2,3-triscarboxylic]", "values": [{"measurement": "pKa at 25° C. (pKa1)", "setting": "[2]", "result": "3.53 (pKa1)"}]}, {"compound": "C[N+](C)([O-])CCNc1ccc(NCC[N+](C)(C)[O-])c2c1C(=O)c1c(O)ccc(O)c1C2=O.Cl.Cl", "note": "[AQ4N dihydrochloride]", "values": [{"measurement": "AQMN increase per day", "setting": "[3]; 20 mM sodium acetate buffer, pH 4.5, 5 mg/ml solution", "result": 0.19, "unit": "%"}, {"measurement": "AQMN increase per day", "setting": "[3]; 20 mM sodium orthophosphate buffer (PO4), pH 6.8, 5 mg/ml solution", "result": 0.02, "unit": "%"}, {"measurement": "AQMN increase per day", "setting": "[3]; H2O, pH 2.4, 5 mg/ml solution", "result": 0.84, "unit": "%"}, {"measurement": "AQMN increase per month", "setting": "[3]; phosphate buffer, 5 mg/ml solution, 63 days", "result": 0.6, "unit": "%"}, {"measurement": "measured pH of AQ4N di-salt solutions (1.4 mM)", "setting": "[1]", "result": 2.4}]}, {"compound": "CC(=O)O", "note": "[Acetic, acetic acid]", "values": [{"measurement": "measured pH of AQ4N di-salt solutions (1.4 mM)", "setting": "[1]", "result": 3.8}]}, {"compound": "O=C1CC(=O)NC(=O)N1", "note": "[Barbituric]", "values": [{"measurement": "pKa at 25° C.", "setting": "[2]", "result": 3.98}]}, {"compound": "O=C(O)c1cccc(C(=O)O)c1C(=O)O", "note": "[Benzene-1,2,3-tricarboxylic (hemimellitic)]", "values": [{"measurement": "pKa at 25° C. (pKa1)", "setting": "[2]", "result": "2.98 (pKa1)"}]}, {"compound": "O=C(O)c1cc(C(=O)O)cc(C(=O)O)c1", "note": "[Benzene-1,3,5-tricarboxylic (trimesic)]", "values": [{"measurement": "pKa at 25° C. (pKa1)", "setting": "[2]", "result": "3.16 (pKa1)"}]}, {"compound": "O=C(O)c1cc(C(=O)O)c(C(=O)O)c(C(=O)O)c1C(=O)O", "note": "[Benzenepentacarboxylic]", "values": [{"measurement": "pKa at 25° C. (pKa1)", "setting": "[2]", "result": "2.34 (pKa1)"}]}, {"compound": "O=S(=O)(O)c1ccccc1", "note": "[Benzenesulfonic, benzenesulfonic acid]", "values": [{"measurement": "pKa1 of acid used to prepare AQ4N disalt", "setting": "[2]", "result": "−2.5"}, {"measurement": "measured pH of AQ4N di-salt solutions (1.4 mM)", "setting": "[1]", "result": 2.5}]}, {"compound": "OCCN(CCO)C(CO)(CO)CO", "note": "[Bis(2-hydroxyethyl)iminotris(hydroxymethyl)methane]", "values": [{"measurement": "pKa at 25° C.", "setting": "[2]", "result": 6.46}]}, {"compound": "COc1cc2c(cc1OC)[C@@]13CCN4CC5=CCO[C@H]6CC(=O)N2[C@H]1[C@H]6[C@H]5C[C@H]43.O.O.O.O", "note": "[Brucine tetrahydrate]", "values": [{"measurement": "pKa at 25° C. (pKa1)", "setting": "[2]", "result": "2.30 (pKa1)"}]}, {"compound": "O=C(O)CC(O)(CC(=O)O)C(=O)O", "note": "[Citric, citric acid]", "values": [{"measurement": "measured pH of AQ4N di-salt solutions (1.4 mM)", "setting": "[1]", "result": 3.3}]}, {"compound": "O=C(O)C(Cl)Cl", "note": "[Dichloroacetic, dichloroacetic acid]", "values": [{"measurement": "measured pH of AQ4N di-salt solutions (1.4 mM)", "setting": "[1]", "result": 2.4}]}, {"compound": "NCC(=O)NCC(=O)O", "note": "[Glycylglycine] (H-Gly-Gly-OH)", "values": [{"measurement": "pKa at 25° C.", "setting": "[2]", "result": 3.06}]}, {"compound": "Cl", "note": "[Hydrochloric, hydrochloric acid]", "values": [{"measurement": "measured pH of AQ4N di-salt solutions (1.4 mM)", "setting": "[1]", "result": 2.4}]}, {"compound": "C=C(CC(=O)O)C(=O)O", "note": "[Itaconic]", "values": [{"measurement": "pKa at 25° C. (pKa1)", "setting": "[2]", "result": "3.84 (pKa1)"}]}, {"compound": "O=C(O)/C=C\\C(=O)O", "note": "[Maleic, maleic acid]", "values": [{"measurement": "measured pH of AQ4N di-salt solutions (1.4 mM)", "setting": "[1]", "result": 2.6}]}, {"compound": "O=C(O)CC(O)C(=O)O", "note": "(centres unmarked) [Malic]", "values": [{"measurement": "pKa at 25° C. (pKa1)", "setting": "[2]", "result": "3.40 (pKa1)"}, {"measurement": "pKa at 25° C. (pKa2)", "setting": "[2]; Table 1, pKa2", "result": "5.05 (pKa2)"}]}, {"compound": "O=C(O)CC(=O)O", "note": "[Malonic, malonic acid]", "values": [{"measurement": "measured pH of AQ4N di-salt solutions (1.4 mM)", "setting": "[1]", "result": 2.8}]}, {"compound": "O=C(O)c1ccccc1C(=O)O", "note": "[Phthalic]", "values": [{"measurement": "pKa at 25° C.", "setting": "[2]", "result": 2.90}]}, {"compound": "O=C(O)CCCCCC(=O)O", "note": "[Pimelic, pimelic acid]", "values": [{"measurement": "pKa at 25° C.", "setting": "[2]", "result": 4.48}, {"measurement": "pKa1 of acid used to prepare AQ4N disalt", "setting": "[2]", "result": 4.48}, {"measurement": "measured pH of AQ4N di-salt solutions (1.4 mM)", "setting": "[1]", "result": 3.8}]}, {"compound": "C/C=C/C=C/C(=O)O", "note": "[Sorbic]", "values": [{"measurement": "pKa at 25° C.", "setting": "[2]", "result": 4.76}]}, {"compound": "O=C(O)C(O)C(O)C(=O)O", "note": "(centres unmarked) [Tartaric, tartaric acid]", "values": [{"measurement": "measured pH of AQ4N di-salt solutions (1.4 mM)", "setting": "[1]", "result": 2.8}]}, {"compound": "AQ4N di-acetate [Example 14]", "values": [{"measurement": "measured pH of AQ4N di-salt solutions (1.4 mM)", "setting": "[1]", "result": 3.8}]}, {"compound": "AQ4N di-benzenesulfonate [Example 6]", "values": [{"measurement": "measured pH of AQ4N di-salt solutions (1.4 mM)", "setting": "[1]", "result": 2.4}]}, {"compound": "AQ4N di-dichloroacetate [Example 7]", "values": [{"measurement": "measured pH of AQ4N di-salt solutions (1.4 mM)", "setting": "[1]", "result": 2.5}]}, {"compound": "AQ4N di-pimelate [Example 13]", "values": [{"measurement": "measured pH of AQ4N di-salt solutions (1.4 mM)", "setting": "[1]", "result": 3.8}]}]}
